In US10183955B2, “Molecules for isolation of polyribosomes, ribosomes, uses and kits thereof” (Immagina Biotechnology S.r.l., priority 2015, dated 2019):

Key:
[1] = tested on: in vitro-cell free translation system (IVTT euk-mix); experiment: In vitro cell-free expression of firefly luciferase (IVTT euk-mix), SDS-PAGE and luminescence; assay type: biochemical
Experimental: FIG. 9. Effect of 3P and puromycin on in vitro-cell free expression of the luciferase gene. Luciferase protein production in the presence of different concentrations of puromycin and 3P (left panel). The firefly luciferase is expressed in vitro (90 min) adding z-labeled biotinylated lysine-tRNAs to the reaction. After incubation with streptavidin-HRP, the protein is visualized by chemiluminescence.
To date, no structural data are available for puromycin binding in complex with the eukaryotic ribosome, while the bonding of a puromycin derivative in bacterial ribosome is well described^49. […] In particular, we tested the effect of 3P on an in vitro-cell free translation system (hereinafter called “IVTT euk-mix”: TNT Quick coupled Transcription/Translation System, Promega #L2881) using a firefly luciferase gene (Promega #L4741). […] After 90 minutes of incubation, we monitored the protein production by SDS-PAGE and luminescence assay (FIG. 9). […]
The luciferase translation efficiency was monitored by means of luminescence signal using the Bright-Glo™ Luciferase Assay System (Promega, E2610) and the Infinite 200 PRO reader (Tecan), according to the manufacturer's instruction. […]

IVTT euk-mix = experiment: EGFP expression in IVTT euk-mix, Western blot; assay type: biochemical; settings: 1 hour, 30° C., 2 μg plasmid, 50 μL IVTT euk-mix
Experimental: FIG. 10. Expression of the firefly luciferase and the Enhanced Green Fluorescent Protein (EGFP) in the presence of 3P. (a, top), Effect of 3P on luciferase protein expression. ε-Labeled biotinylated lysine-tRNAs is used to monitor the protein production by SDS-PAGE. (a, bottom), Histogram representing the relative quantification (density fold change) of the bands reported in the western blot (up), respect to the control (input, reaction mix without 3P). Reactions are carried out in a final volume of 50 μL of IVTT euk-mix. Error bars represent s.d. calculated from a duplicate experiment; (b, top-left), Scheme of the plasmid used for EGFP expression. Restriction sites used to clone the gene are reported. (b, top-right) The effect of 3P on EGFP expression monitored by Western Blot analysis. Reactions are performed in a final volume of 50 μL of IVTT euk-mix (up) or IVTT pro-mix (down). (b, bottom). Effect of 3P and 3PP on EGFP expression in a IVTT euk-mix.
FIG. 15. Isolation of actively translated GFP transcripts after in vitro expression of EGFP protein. (a, left) The two plasmids used for EGFP expression (pBluescript II KS+, Genscript; pPR-IBA2, IBA, #2-1391-000). […] The relative abundance is reported as 2^(39-Cq), where 39 are the number of cycles and Cq is the quantification cycle. […]

Compound | b of best fit y=A*exp(−x/b) of luciferase expression as a function of concentration (A=100) ([1]; concentrations 0, 0.01, 0.1, 1, 10 μM, n=3) | protein synthesis upon titration ([1]; firefly luciferase, 90 minutes, 0-10 μM) | effect on EGFP expression (free in solution) (IVTT euk-mix)
COc1ccc(C[C@H](N)C(=O)N[C@H]2[C@@H](O)[C@H](n3cnc4c(N(C)C)ncnc43)O[C@@H]2CO)cc1 [puromycin] | 0.020±0.003 | exponential decay of the protein synthesis | 
COC(=O)C[C@](O)(CCC(C)(C)O)C(=O)O[C@@H]1C(OC)=C[C@]23CCCN2CCc2cc4c(cc2[C@H]13)OCO4 [harringtonine] |  |  | inhibitory effect
